# Where “and” joins values, the source holds several entries; their conditions need not be identical. Identical values can stand only once.
# How the values were obtained:
# [1] = tested on: resting T cells; test: PMET activity measured by WST-1/PMS reduction; format: cell-based; details: Homo sapiens, T-cell, read-out: IC50 inhibition of PMET (WST-1/PMS reduction)
# Experimental: (§1) Immediately prior to experiments, frozen PBMC were thawed, centrifuged at 1400 rpm in a Multifuge 3 s (Heraeus) for 4 min, washed in RPMI+10% FCS and resuspended in T cell medium (RPMI+10% FCS+10 μM 2-mercaptoethanol (Sigma), 1×glutamine, 1×non-essential amino acids (Gibco)) at 2×10^6 cells/mL. Cells (2×10^5) were activated by adding 10 μg/mL anti-CD3 and 5 μg/mL anti-CD28 and 20 U/mL IL-2 per well. Cells were incubated at 37° C. in a humidified incubator maintained at 5% CO2 for 4 to 5 days until large numbers of large spherical aggregates or “bursts” of lymphocytes were observed. Activated proliferating T cells were pooled from the wells for further experiments. Resting T cells were incubated for the same length of time but in the presence of 20 U/mL IL-2 only.
# (§2) WST-1/PMS reduction rates were measured in a microplate format as described previously (Berridge and Tan, 1998). […] WST-1 reduction was measured in real time at 450 nm over 30-60 min in a BMG FLUOstar OPTIMA plate reader.
# (§3) The effect of PXD on PMET (FIG. 1A) was investigated by measuring reduction of the cell impermeable tetrazolium dye, WST-1, in the presence of its obligate intermediate electron acceptor, 1 mPMS (WST-1/PMS reduction). […] The effect of PXD on proliferation (FIG. 1B) was determined by measuring intracellular reduction of the tetrazolium salt, MTT.
# [2] = tested on: proliferating T cells; test: PMET activity measured by WST-1/PMS reduction; format: cell-based; details: Homo sapiens, T-cell, read-out: IC50 inhibition of PMET (WST-1/PMS reduction)
# Experimental: as §1, §2, §3
# [3] = tested on: primary ALL blasts; test: Viability of leukemic blasts from bone marrow samples, AV/PI staining; format: cell-based, human
# Experimental: (§4) FIG. 6. Sensitivity of different cell types to PXD. Different cell types were incubated with 10 μM PXD for 24 h and viability was determined by AV/PI staining and reported as [% viable blasts after PXD exposure]/[% viable blasts after 0.1% DMSO exposure]. Percentage values are as follows: AML-derived HL60: 16±5 and HL60p°: 54±6, ALL-derived MOLT-4: 44±4, MM-derived U226: 59±6 and RPMI 8226: 12±4, primary AML blasts: 64±5, primary ALL blasts: 23±4, normal BM: 89±5, proliferating T cells: 69±4, resting T cells: 98±6. Results from cell lines are presented as the average±SEM of at least 3 separate experiments, results from bone marrow samples are presented as the average±SD of single experiments performed in duplicate.
# (§5) Bone marrow samples from AML (n=22) and ALL (n=8) patients, containing more than 80% blasts, were selected from the tissue bank. Bone marrow samples were thawed, centrifuged at 1400 rpm in a Multifuge 3 s (Heraeus) for 4 min, washed twice in RPMI and resuspended in RPMI+10% FCS. Aliquots were incubated for 24 h in the presence of 0.1% DMSO (control) or 10 μM PXD and examined for morphology and viability. […] was determined by AV/PI staining as [% viable blasts after PXD treatment]/[% viable blasts in control sample].
# (§6) Cells were centrifuged at 1400 rpm in a Multifuge 3 s (Heraeus) for 4 min at room temperature, washed in phosphate buffered saline solution, pH 7.3 (PBS) and resuspended in Annexin V binding buffer. Small aliquots (0.5-1×10^6 cells) were transferred to 1.5 mL tubes and spun at 1400 rpm in a Multifuge 3 s (Heraeus) for 4 min. Most supernatant was removed and 5 μL PI and 5 μL FITC-labelled AV was added to the wet pellets which were vortexed. After 30 min in the dark on ice, 500 μl of AV binding buffer was added, the cells were centrifuged for 2 min at 1400 rpm, washed once with AV binding buffer and resuspended in 300 μL of AV binding buffer in FACS tubes. Staining was analyzed by flow cytometry using a Becton Dickinson Canto II FACS analyser using FlowJo (TreeStar) software.
# [4] = tested on: primary AML blasts; test: as above; format: cell-based, human
# Experimental: as §4, §5, §6
# [5] = tested on: resting responder T cells; test: Third party MLR of resting responder T cells sorted after PXD exposure; format: cell-based, human; details: 10 μM PXD added day 5 of first MLR; sorted day 8, restimulated without PXD
# Experimental: Mixed lymphocyte reactions were established using unrelated, HLA-mismatched healthy donor blood samples as donor/recipient pairs. Stimulator PBMC were γ-irradiated with 30 Gy as described previously (Zenhausen et al., 2007). Responder PBMC were washed twice in PBS, 5,6-carboxy-succinimidyl-fluorescein-ester (CSFE)-labelled (1.25 μM, Sigma) at room temperature for 5 minutes, and washed twice in PBS/10% FCS. Two hundred thousand stimulator and responder cells were added per well at a 1:1 ratio in a 96 U-well plate in T cell medium. Stimulator and responder cells were also plated alone, and all cells were cultured in a 5% CO2, 37° C. humidified incubator. Viability, CFSE fluorescence and cell surface antigen expression were determined by flow cytometry. Cells were washed twice in FACS buffer (PBS, 2% FCS), and resuspended in 50 μL/5×10^5 cells and analysed on a Becton Dickinson LSRII FACS analyser using FlowJo (TreeStar) software.
# The experiment described above was expanded by determining the effect of PXD exposure on responder T cells that had previously been exposed to, but not activated in a MLR. Two consecutive sets of MLRs were set up, mixing responder T cells and γ-irradiated stimulator cells on day 0, adding 10 μM PXD or 0.1% DMSO on day 5, and analysing proliferation and viability of responder T cells on day 8. […]
smiles,measurement,setting,value
"Oc1ccc(C2=Cc3ccc(O)cc3OC2)cc1 [PXD, Isoflav-3-en-4′,7-diol]",IC50,[1],> 200 µM
same,IC50,[2],46 µM
same,viability at 10 µM,"[3]; Homo sapiens, 24 h, primary ALL blasts (average), 10 μM PXD for 24 h, read-out: [% viable blasts after PXD exposure]/[% viable blasts after 0.1% DMSO exposure]",23 ± 4%
same,% Viable Blasts,"[3]; individual ALL patient bone marrow samples, 10 μM PXD 24 h, relative to 0.1% DMSO control",25% and 29% and 37% and 40% and 7% and 14% and 16% and 19%
same,viability at 10 µM,"[4]; Homo sapiens, 24 h, primary AML blasts (average), 10 μM PXD for 24 h, read-out: [% viable blasts after PXD exposure]/[% viable blasts after 0.1% DMSO exposure]",64 ± 5%
same,% Viable Blasts,"[4]; individual AML patient bone marrow samples, 10 μM PXD 24 h, relative to 0.1% DMSO control",23% and 32% and 36% and 39% and 44% and 49% and 55% and 57% and 58% and 62% and 67% and 71% and 75% and 88% and 92% and 95% and 96% and 97% and 99% and 20%
same,viability and functionality of non-proliferating T cells,[5],affects neither the viability nor the functionality
